Measurements published in US12365696B2, “Small-molecule focal adhesion kinase (FAK) inhibitors” (DANA-FARBER CANCER INSTITUTE, INC., priority 2019, dated 2025).

Assays:
Assay in all cases: KINOMEscan
Format in all cases: binding
[1] = target: RSK4(Kin.Dom.2-C-terminal) (Homo sapiens (Human), UniProt Q9UK32); settings: 10000 nM, read-out: Percent Control
PRKG2 = PRKG2 (Homo sapiens (Human), UniProt Q13237); settings: PRKG2, 10000 nM; read-out: Percent Control
ULK1 = ULK1 (Homo sapiens (Human), UniProt O75385); settings: ULK1, 10000 nM; read-out: Percent Control
TAK1 = TAK1 (Homo sapiens (Human), UniProt O43318); settings: TAK1, 10000 nM; read-out: Percent Control
EPHA5 = EPHA5 (Homo sapiens (Human), UniProt P54756); settings: EPHA5, 10000 nM; read-out: Percent Control
FGFR1 = FGFR1 (Homo sapiens (Human), UniProt P11362); settings: FGFR1, 10000 nM; read-out: Percent Control
Sequence of FGFR1 (P11362 22-822): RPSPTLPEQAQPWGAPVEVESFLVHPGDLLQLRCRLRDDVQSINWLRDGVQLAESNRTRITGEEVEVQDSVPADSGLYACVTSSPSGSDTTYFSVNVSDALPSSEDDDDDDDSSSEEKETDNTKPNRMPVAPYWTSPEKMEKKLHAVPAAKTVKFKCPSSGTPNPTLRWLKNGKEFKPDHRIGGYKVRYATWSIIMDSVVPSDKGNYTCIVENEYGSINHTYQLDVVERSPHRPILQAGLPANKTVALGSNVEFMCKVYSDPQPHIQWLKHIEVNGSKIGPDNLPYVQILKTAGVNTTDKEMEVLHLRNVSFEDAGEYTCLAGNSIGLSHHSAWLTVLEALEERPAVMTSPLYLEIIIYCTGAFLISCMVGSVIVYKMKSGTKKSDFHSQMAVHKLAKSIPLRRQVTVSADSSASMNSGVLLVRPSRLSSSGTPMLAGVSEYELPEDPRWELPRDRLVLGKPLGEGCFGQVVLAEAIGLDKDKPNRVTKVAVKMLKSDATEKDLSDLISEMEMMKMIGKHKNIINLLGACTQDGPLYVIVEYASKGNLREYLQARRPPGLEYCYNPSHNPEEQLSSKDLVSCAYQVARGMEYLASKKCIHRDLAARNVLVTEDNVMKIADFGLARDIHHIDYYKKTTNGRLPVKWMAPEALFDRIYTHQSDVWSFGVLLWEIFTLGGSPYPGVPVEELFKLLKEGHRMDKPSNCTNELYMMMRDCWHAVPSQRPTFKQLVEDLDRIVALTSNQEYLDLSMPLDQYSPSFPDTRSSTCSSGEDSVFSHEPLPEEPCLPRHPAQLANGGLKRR

SNARK = SNARK (Homo sapiens (Human), UniProt Q9H093); settings: 10000 nM, read-out: Percent Control
[2] = target: RSK3(Kin.Dom.2-C-terminal) (Homo sapiens (Human), UniProt Q15349); settings: 10000 nM, read-out: Percent Control
JNK2 = JNK2 (Homo sapiens (Human), UniProt P45984); settings: JNK2, 10000 nM; read-out: Percent Control
SYK = SYK (Homo sapiens (Human), UniProt P43405); settings: 10000 nM, read-out: Percent Control
GAK = GAK (Homo sapiens (Human), UniProt O14976); settings: 10000 nM, read-out: Percent Control
[3] = target: TYK2(JH1domain-catalytic) (Homo sapiens (Human), UniProt P29597); settings: 10000 nM, read-out: Percent Control
Sequence of TYK2(JH1domain-catalytic) (P29597 897-1176): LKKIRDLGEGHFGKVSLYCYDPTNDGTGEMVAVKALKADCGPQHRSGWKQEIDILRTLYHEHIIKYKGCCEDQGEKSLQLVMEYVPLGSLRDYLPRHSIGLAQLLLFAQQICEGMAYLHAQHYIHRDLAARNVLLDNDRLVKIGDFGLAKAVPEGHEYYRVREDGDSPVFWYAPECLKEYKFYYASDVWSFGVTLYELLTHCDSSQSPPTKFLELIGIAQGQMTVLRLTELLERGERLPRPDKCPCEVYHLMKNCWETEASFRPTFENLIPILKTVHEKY

PIK3CA(E545K) = PIK3CA(E545K) (Homo sapiens (Human), UniProt P42336, E545K); settings: 10000 nM, read-out: Percent Control
MAP4K2 = MAP4K2 (Homo sapiens (Human), UniProt Q12851); settings: MAP4K2, 10000 nM; read-out: Percent Control
TLK2 = TLK2 (Homo sapiens (Human), UniProt Q86UE8); settings: TLK2, 10000 nM; read-out: Percent Control
BRAF = BRAF (Homo sapiens (Human), UniProt P15056); settings: 10000 nM, read-out: Percent Control
SNRK = SNRK (Homo sapiens (Human), UniProt Q9NRH2); settings: 10000 nM, read-out: Percent Control
AMPK-alpha1 = AMPK-alpha1 (Homo sapiens (Human), UniProt Q13131); settings: AMPK-alpha1, 10000 nM; read-out: Percent Control
Sequence of AMPK-alpha1 (Q13131 whole entry): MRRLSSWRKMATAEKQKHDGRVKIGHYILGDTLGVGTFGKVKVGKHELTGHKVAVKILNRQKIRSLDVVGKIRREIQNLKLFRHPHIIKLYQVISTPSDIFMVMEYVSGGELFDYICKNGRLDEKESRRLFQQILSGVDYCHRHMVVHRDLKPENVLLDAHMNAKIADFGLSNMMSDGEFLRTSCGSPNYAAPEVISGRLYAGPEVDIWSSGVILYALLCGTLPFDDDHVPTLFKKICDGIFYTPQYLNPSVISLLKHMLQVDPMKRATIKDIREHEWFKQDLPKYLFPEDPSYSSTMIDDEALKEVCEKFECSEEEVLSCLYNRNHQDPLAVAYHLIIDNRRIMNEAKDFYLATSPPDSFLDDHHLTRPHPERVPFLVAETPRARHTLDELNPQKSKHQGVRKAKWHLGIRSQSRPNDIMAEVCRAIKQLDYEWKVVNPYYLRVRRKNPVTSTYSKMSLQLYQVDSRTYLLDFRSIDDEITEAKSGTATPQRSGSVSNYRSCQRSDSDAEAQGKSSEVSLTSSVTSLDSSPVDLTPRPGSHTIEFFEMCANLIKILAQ

[4] = target: ABL1(F317I)-nonphosphorylated (Homo sapiens (Human), UniProt P00519, F317I); settings: 10000 nM, read-out: Percent Control
LTK = LTK (Homo sapiens (Human), UniProt P29376); settings: 10000 nM, read-out: Percent Control
TIE2 = TIE2 (Homo sapiens (Human), UniProt Q02763); settings: TIE2, 10000 nM; read-out: Percent Control
DYRK2 = DYRK2 (Homo sapiens (Human), UniProt Q92630); settings: DYRK2, 10000 nM; read-out: Percent Control
Sequence of DYRK2 (Q92630 whole entry): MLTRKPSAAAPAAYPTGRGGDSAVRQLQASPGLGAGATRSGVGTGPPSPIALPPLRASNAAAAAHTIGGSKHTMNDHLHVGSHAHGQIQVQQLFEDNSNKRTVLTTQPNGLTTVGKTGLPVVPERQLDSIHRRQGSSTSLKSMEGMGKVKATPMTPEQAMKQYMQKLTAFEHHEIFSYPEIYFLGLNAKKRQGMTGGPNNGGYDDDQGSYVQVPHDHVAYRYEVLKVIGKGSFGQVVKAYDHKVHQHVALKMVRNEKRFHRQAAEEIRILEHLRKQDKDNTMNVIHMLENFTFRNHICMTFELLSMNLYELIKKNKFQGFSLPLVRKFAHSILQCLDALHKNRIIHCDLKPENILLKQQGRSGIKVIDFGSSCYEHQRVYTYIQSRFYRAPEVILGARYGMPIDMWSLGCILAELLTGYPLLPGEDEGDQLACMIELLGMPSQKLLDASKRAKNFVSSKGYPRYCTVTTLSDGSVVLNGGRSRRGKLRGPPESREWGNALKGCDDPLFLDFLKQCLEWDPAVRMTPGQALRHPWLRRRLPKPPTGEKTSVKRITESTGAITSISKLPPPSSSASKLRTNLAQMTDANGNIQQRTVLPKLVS

ERK4 = ERK4 (Homo sapiens (Human), UniProt P31152); settings: ERK4, 10000 nM; read-out: Percent Control
[5] = target: ABL1(H396P)-nonphosphorylated (Homo sapiens (Human), UniProt P00519, H396P); settings: 10000 nM, read-out: Percent Control
YES = YES (Homo sapiens (Human), UniProt P07947); settings: 10000 nM, read-out: Percent Control
PDPK1 = PDPK1 (Homo sapiens (Human), UniProt O15530); settings: PDPK1, 10000 nM; read-out: Percent Control
VRK2 = VRK2 (Homo sapiens (Human), UniProt Q86Y07); settings: VRK2, 10000 nM; read-out: Percent Control
GRK3 = GRK3 (Homo sapiens (Human), UniProt P35626); settings: GRK3, 10000 nM; read-out: Percent Control
Sequence of GRK3 (P35626 whole entry): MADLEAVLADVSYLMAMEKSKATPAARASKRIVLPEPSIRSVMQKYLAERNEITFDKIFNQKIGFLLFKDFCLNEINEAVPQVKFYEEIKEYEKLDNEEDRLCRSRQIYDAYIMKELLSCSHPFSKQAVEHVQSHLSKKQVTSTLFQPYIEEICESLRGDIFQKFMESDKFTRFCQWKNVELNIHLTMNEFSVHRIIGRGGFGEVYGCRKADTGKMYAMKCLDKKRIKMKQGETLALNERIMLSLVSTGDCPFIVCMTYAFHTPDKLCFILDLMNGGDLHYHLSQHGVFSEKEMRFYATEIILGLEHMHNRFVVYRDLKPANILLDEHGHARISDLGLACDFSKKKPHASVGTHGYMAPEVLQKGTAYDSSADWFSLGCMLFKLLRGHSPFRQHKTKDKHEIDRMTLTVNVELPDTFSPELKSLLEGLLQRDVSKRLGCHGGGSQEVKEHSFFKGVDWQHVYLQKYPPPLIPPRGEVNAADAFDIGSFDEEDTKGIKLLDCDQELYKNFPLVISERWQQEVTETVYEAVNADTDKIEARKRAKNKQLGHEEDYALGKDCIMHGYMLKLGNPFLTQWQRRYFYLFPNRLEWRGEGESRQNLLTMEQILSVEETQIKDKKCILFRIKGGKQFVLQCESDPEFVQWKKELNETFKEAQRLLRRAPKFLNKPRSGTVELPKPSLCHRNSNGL

ASK2 = ASK2 (Homo sapiens (Human), UniProt O95382); settings: ASK2, 10000 nM; read-out: Percent Control
EPHB4 = EPHB4 (Homo sapiens (Human), UniProt P54760); settings: EPHB4, 10000 nM; read-out: Percent Control
ICK = ICK (Homo sapiens (Human), UniProt Q9UPZ9); settings: 10000 nM, read-out: Percent Control
Sequence of ICK (Q9UPZ9 whole entry): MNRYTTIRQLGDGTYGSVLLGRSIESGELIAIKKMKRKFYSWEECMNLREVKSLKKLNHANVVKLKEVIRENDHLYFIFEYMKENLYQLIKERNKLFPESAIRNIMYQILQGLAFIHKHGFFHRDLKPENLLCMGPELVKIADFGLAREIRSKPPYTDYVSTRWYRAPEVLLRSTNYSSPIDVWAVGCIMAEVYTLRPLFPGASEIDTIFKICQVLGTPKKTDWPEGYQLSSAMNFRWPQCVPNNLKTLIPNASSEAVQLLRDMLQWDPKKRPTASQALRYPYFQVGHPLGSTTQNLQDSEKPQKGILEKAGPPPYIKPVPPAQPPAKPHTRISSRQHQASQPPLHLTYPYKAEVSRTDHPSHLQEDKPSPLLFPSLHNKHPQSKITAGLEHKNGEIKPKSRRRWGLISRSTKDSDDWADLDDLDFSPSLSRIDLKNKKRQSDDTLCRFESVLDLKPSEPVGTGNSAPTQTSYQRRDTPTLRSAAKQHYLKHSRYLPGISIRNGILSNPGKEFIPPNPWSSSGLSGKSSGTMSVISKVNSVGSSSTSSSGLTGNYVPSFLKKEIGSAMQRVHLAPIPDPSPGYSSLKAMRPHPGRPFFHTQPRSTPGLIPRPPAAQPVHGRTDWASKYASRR

CAMK1 = CAMK1 (Homo sapiens (Human), UniProt Q14012); settings: CAMK1, 10000 nM; read-out: Percent Control
Sequence of CAMK1 (Q14012 whole entry): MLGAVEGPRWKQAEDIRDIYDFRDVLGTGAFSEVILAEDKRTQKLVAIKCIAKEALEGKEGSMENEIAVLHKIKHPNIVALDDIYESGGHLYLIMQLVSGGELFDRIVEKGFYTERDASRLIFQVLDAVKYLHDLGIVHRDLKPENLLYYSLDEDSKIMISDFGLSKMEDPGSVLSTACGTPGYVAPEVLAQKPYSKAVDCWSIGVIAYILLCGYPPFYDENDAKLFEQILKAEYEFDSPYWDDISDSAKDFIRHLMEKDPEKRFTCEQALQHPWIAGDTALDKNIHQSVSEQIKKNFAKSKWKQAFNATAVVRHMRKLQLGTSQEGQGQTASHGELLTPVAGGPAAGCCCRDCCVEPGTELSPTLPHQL

STK16 = STK16 (Homo sapiens (Human), UniProt O75716); settings: STK16, 10000 nM; read-out: Percent Control
Sequence of STK16 (O75716 whole entry): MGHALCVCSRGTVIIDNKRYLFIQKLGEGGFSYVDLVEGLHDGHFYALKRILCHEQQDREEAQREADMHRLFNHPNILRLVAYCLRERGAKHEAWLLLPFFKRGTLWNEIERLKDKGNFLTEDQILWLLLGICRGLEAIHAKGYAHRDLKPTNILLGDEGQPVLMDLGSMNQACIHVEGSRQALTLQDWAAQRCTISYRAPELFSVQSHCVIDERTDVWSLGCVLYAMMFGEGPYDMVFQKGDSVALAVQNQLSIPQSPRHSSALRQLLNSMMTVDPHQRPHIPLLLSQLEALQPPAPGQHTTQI

EPHA4 = EPHA4 (Homo sapiens (Human), UniProt P54764); settings: EPHA4, 10000 nM; read-out: Percent Control

Sequence of PRKG2 (Q13237 whole entry): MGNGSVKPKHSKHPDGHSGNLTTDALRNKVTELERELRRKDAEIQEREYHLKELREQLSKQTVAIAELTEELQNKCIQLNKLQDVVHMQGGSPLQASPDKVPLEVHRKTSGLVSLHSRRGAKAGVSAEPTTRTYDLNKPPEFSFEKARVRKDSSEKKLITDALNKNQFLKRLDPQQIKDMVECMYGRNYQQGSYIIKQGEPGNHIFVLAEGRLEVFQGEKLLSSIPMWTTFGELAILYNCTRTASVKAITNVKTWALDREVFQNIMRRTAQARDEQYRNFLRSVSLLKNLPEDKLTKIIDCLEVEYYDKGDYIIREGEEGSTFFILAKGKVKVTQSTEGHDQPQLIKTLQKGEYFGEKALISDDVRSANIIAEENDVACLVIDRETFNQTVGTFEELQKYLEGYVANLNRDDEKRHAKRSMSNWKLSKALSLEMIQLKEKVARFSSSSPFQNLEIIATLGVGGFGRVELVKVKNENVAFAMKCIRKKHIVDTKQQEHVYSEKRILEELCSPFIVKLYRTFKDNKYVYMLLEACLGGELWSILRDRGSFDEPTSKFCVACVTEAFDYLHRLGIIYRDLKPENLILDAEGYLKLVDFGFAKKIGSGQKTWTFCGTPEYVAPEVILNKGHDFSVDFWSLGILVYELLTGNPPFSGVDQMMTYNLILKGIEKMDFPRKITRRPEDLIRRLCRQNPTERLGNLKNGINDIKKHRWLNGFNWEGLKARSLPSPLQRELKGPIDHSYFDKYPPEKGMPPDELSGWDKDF

SMILES | remaining binding at 10 µM [1] [%] | remaining binding at 10 µM (PRKG2) [%] | remaining binding at 10 µM (ULK1) [%] | remaining binding at 10 µM (TAK1) [%] | remaining binding at 10 µM (EPHA5) [%] | remaining binding at 10 µM (FGFR1) [%] | remaining binding at 10 µM (SNARK) [%] | remaining binding at 10 µM [2] [%] | remaining binding at 10 µM (JNK2) [%] | remaining binding at 10 µM (SYK) [%] | remaining binding at 10 µM (GAK) [%] | remaining binding at 10 µM [3] [%] | remaining binding at 10 µM (PIK3CA(E545K)) [%] | remaining binding at 10 µM (MAP4K2) [%] | remaining binding at 10 µM (TLK2) [%] | remaining binding at 10 µM (BRAF) [%] | remaining binding at 10 µM (SNRK) [%] | remaining binding at 10 µM (AMPK-alpha1) [%] | remaining binding at 10 µM [4] [%] | remaining binding at 10 µM (LTK) [%] | also measured
COc1cc(N2CCC(N3CCN(C)CC3)CC2)ccc1Nc1ncc2c(n1)N(C)c1sc(C)nc1C(=O)N2 [Compound 3, 6-((2-methoxy-4-(4-(4-methylpiperazin-1-yl)piperidin-1-yl)phenyl)amino)-2,4-dimethyl-4,9-dihydro-10H-pyrimido[5,4-b]thiazolo[5,4-e][1,4]diazepin-10-one] | 69 | 73 | 100 | 95 | 65 | 75 | 100 | 84 | 100 | 77 | 4.2 | 84 | 90 | 100 | 100 | 86 | 94 | 79 | 3.8 | 81 | remaining binding at 10 µM (TIE2): 83%; remaining binding at 10 µM (DYRK2): 100%; remaining binding at 10 µM (ERK4): 84%; remaining binding at 10 µM [5]: 4.3%; remaining binding at 10 µM (YES): 72%; remaining binding at 10 µM (PDPK1): 76%; remaining binding at 10 µM (VRK2): 91%; remaining binding at 10 µM (GRK3): 100%; remaining binding at 10 µM (ASK2): 100%; remaining binding at 10 µM (EPHB4): 61%; remaining binding at 10 µM (ICK): 100%; remaining binding at 10 µM (CAMK1): 100%; remaining binding at 10 µM (STK16): 81%; remaining binding at 10 µM (EPHA4): 87%
COc1cc(N2CCC(N3CCN(C)CC3)CC2)ccc1Nc1ncc2c(n1)N(C)c1sc(C)nc1C(=O)N2C [Compound 5, 6-((2-methoxy-4-(4-(4-methylpiperazin-1-yl)piperidin-1-yl)phenyl)amino)-2,4,9-trimethyl-4,9-dihydro-10H-pyrimido[5,4-b]thiazolo[5,4-e][1,4]diazepin-10-one] | 67 | 100 | 98 | 100 | 95 | 90 | 91 | 31 | 98 | 89 | 31 | 97 | 100 | 94 | 100 | 95 | 100 | 91 | 48 | 97 | remaining binding at 10 µM (TIE2): 100%; remaining binding at 10 µM (DYRK2): 100%; remaining binding at 10 µM (ERK4): 100%; remaining binding at 10 µM [5]: 100%; remaining binding at 10 µM (YES): 97%; remaining binding at 10 µM (PDPK1): 96%; remaining binding at 10 µM (VRK2): 97%; remaining binding at 10 µM (GRK3): 81%; remaining binding at 10 µM (ASK2): 100%; remaining binding at 10 µM (EPHB4): 100%; remaining binding at 10 µM (ICK): 100%; remaining binding at 10 µM (CAMK1): 92%; remaining binding at 10 µM (STK16): 100%; remaining binding at 10 µM (EPHA4): 68%
